Patent US4652638A, “3-O-acyl-4"-deoxydesmycosin derivatives” (Toyo Jozo Kabushiki Kaisha, priority 1983, dated 1987)
Values after ≈ are worked out from the molar mass of the structure shown. Read-outs that look alike come from different tables or passages of the source.

Columns and labels:
Assay in all cases: MIC (minimum inhibitory concentration)
Format in all cases: cell-based
[1] = system: Shigella flexineri type 3a; settings: TYPE3A
[2] = system: Shigella sonnei E33
[3] = system: Salmonella enteritidis Gaertner; settings: Salmonella enterica
[4] = system: Streptococcus faecalis 1501; settings: Enterococcus faecalis
[5] = system: Salmonella typhosa H901; settings: Salmonella enterica, TYPHOSA
[6] = system: Corynebacterium diphtheriae P.Y.8
[7] = system: Staphylococcus epidermidis sp-al-1; settings: SPAL1
[8] = system: Escherichia coli NIHJ-JC2; settings: NIHJJC2
[9] = system: Staphylococcus aureus MS353 A0*; settings: * clinical isolate, macrolide-resistant bacteria A group
[10] = system: Staphylococcus aureus MS353
[11] = system: Escherichia coli B
[12] = system: Micrococcus flavus ATCC 10240; settings: ATCC10240
[13] = system: Staphylococcus aureus MS353 C36; settings: MS353C36
[14] = system: Staphylococcus aureus ATCC 6538P; settings: ATCC6538P
[15] = system: Sarcina lutea ATCC 9341; settings: Micrococcus luteus, ATCC9341; Sarcina lutea ATCC 9341; read-out: MIC
[16] = system: Streptococcus pyogenes 1022*; settings: Streptococcus pyogenes
[17] = system: Proteus vulgaris OX19
[18] = system: Staphylococcus aureus 0127*; settings: Staphylococcus aureus
[19] = system: Streptococcus agalaactiae 1020
[20] = system: Streptococcus pyogenes N.Y.5
[21] = system: Bacillus subtilis ATCC 6633; settings: ATCC6633
[22] = system: Klebsiella pneumoniae ATCC 10031; settings: ATCC10031
[23] = system: Serratia marcescens
[24] = system: Staphylococcus aureus 0119*; settings: Staphylococcus aureus
[25] = system: Pseudomonas aeruginosa IAM 1095; settings: IAM1095
[26] = Escherichia coli NIHJ-JC2, read-out: MIC
[27] = Escherichia coli B, read-out: MIC

| Structure (SMILES) | MIC [1] | MIC [2] | MIC [5] | MIC [8, 26] | MIC [9] | MIC [10] | MIC [11, 27] | MIC [13] | MIC [14] | MIC [15] | MIC [16] | MIC [18] | MIC [20] | MIC [24] | MIC ([3]; ENTERITIDIS) | MIC [4]; 1501 | MIC [6] | MIC ([7]; Staphylococcus epidermidis) | MIC ([12]; Micrococcus flavus) | MIC [17] | further results |
| --- | --- | --- | --- | --- | --- | --- | --- | --- | --- | --- | --- | --- | --- | --- | --- | --- | --- | --- | --- | --- | --- |
| CCC1OC(=O)CC(OC(=O)CC(C)C)C(C)C(OC2OC(C)C(O)C(N(C)C)C2O)C(CC=O)CC(C)C(=O)C=CC(C)=CC1COC1OC(C)CC(OC)C1OC (centres unmarked) [Example 4, 3-O-isovaleryl-4"-deoxydesmycosin] | 50 µg/mL (≈ 59.5 µM) | > 100 µg/mL | > 100 µg/mL | > 100 µg/mL | > 100 µg/mL | 0.4 µg/mL (≈ 0.476 µM) | > 100 µg/mL | 0.4 µg/mL (≈ 0.476 µM) | 0.4 µg/mL (≈ 0.476 µM) | ≤ 0.05 µg/mL | > 100 µg/mL | > 100 µg/mL | ≤ 0.05 µg/mL | > 100 µg/mL |  |  |  |  |  |  | MIC ([3]; Salmonella enteritidis Gaertner, read-out: MIC): > 100 µg/mL; MIC ([4]; Streptococcus faecalis 1501, read-out: MIC): 0.4 µg/mL (≈ 0.476 µM); MIC ([6]; read-out: MIC): ≤ 0.05 µg/mL; MIC ([7]; Staphylococcus epidermidis sp-al-1, read-out: MIC): 0.1 µg/mL (≈ 0.119 µM); MIC ([12]; Micrococcus flavus ATCC 10240, read-out: MIC): ≤ 0.05 µg/mL; MIC ([17]; read-out: MIC): 50 µg/mL (≈ 59.5 µM); MIC ([19]; Streptococcus agalaactiae 1020, read-out: MIC): ≤ 0.05 µg/mL; MIC ([21]; Bacillus subtilis ATCC 6633, read-out: MIC): 0.2 µg/mL (≈ 0.238 µM); MIC ([22]; Klebsiella pneumoniae ATCC 10031, read-out: MIC): 25 µg/mL (≈ 29.8 µM); MIC ([23]; read-out: MIC): > 100 µg/mL; MIC ([25]; Pseudomonas aeruginosa IAM 1095, read-out: MIC): > 100 µg/mL |
| CC[C@H]1OC(=O)C[C@@H](O)[C@H](C)[C@@H](O[C@@H]2O[C@H](C)[C@@H](O[C@H]3C[C@@](C)(O)[C@@H](O)[C@H](C)O3)[C@H](N(C)C)[C@H]2O)[C@@H](CC=O)C[C@@H](C)C(=O)/C=C/C(C)=C/[C@@H]1CO[C@@H]1O[C@H](C)[C@@H](O)[C@@H](OC)[C@H]1OC [Tylosin, reference compound] | 50 µg/mL (≈ 54.6 µM) | > 100 µg/mL | > 100 µg/mL |  | > 100 µg/mL | 0.8 µg/mL (≈ 0.873 µM) |  | 0.4 µg/mL (≈ 0.437 µM) |  | ≤ 0.05 µg/mL | > 100 µg/mL | > 100 µg/mL | 0.1 µg/mL (≈ 0.109 µM) | > 100 µg/mL | > 100 µg/mL | 0.8 µg/mL (≈ 0.873 µM) | ≤ 0.05 µg/mL | 0.4 µg/mL (≈ 0.437 µM) | ≤ 0.05 µg/mL | > 100 µg/mL | MIC ([8]; Escherichia coli): > 100 µg/mL; MIC ([11]; Escherichia coli): > 100 µg/mL; MIC ([19]; Streptococcus, 1020): 0.2 µg/mL (≈ 0.218 µM); MIC ([21]; Bacillus subtilis): 0.2 µg/mL (≈ 0.218 µM); MIC ([22]; Klebsiella pneumoniae): 50 µg/mL (≈ 54.6 µM); MIC [23]: > 100 µg/mL; MIC ([25]; Pseudomonas aeruginosa): > 100 µg/mL |
| CC[C@H]1OC(=O)[C@H](C)[C@@H](O[C@H]2C[C@@](C)(OC)[C@@H](O)[C@H](C)O2)[C@H](C)[C@@H](O[C@@H]2O[C@H](C)C[C@H](N(C)C)[C@H]2O)[C@](C)(O)C[C@@H](C)C(=O)[C@H](C)[C@@H](O)[C@]1(C)O [Erythromycin, reference compound] | 12.5 µg/mL (≈ 17 µM) | 100 µg/mL (≈ 136 µM) | 100 µg/mL (≈ 136 µM) | 100 µg/mL (≈ 136 µM) | > 100 µg/mL | 0.2 µg/mL (≈ 0.273 µM) | > 100 µg/mL | > 100 µg/mL | 0.2 µg/mL (≈ 0.273 µM) | ≤ 0.05 µg/mL | > 100 µg/mL | > 100 µg/mL | ≤ 0.05 µg/mL | > 100 µg/mL | 100 µg/mL (≈ 136 µM) | 0.2 µg/mL (≈ 0.273 µM) | ≤ 0.05 µg/mL | 0.2 µg/mL (≈ 0.273 µM) | 0.1 µg/mL (≈ 0.136 µM) | 50 µg/mL (≈ 68.1 µM) | MIC ([19]; Streptococcus, 1020): ≤ 0.05 µg/mL; MIC ([21]; Bacillus subtilis): 0.1 µg/mL (≈ 0.136 µM); MIC ([22]; Klebsiella pneumoniae): 6.3 µg/mL (≈ 8.58 µM); MIC [23]: 100 µg/mL (≈ 136 µM); MIC ([25]; Pseudomonas aeruginosa): 100 µg/mL (≈ 136 µM) |
